Test results published in PubChem BioAssay AID248 (DTP/NCI, 2004).
Several values for one entry are separate records, joined by “and”; a condition that tells them apart may be missing. Identical values can stand only once. Toxic doses and inconclusive results are not listed.

Tested on: L1210 leukemia ip in BDF1 mice, survival T/C
Assay: NCI In Vivo Anticancer Drug Screen. Data for tumor model L1210 Leukemia (intraperitoneal) in B6D2F1 (BDF1) mice
Details: endpoint: mean survival time, higher = longer survival
Method in brief: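 Each compound was tested against a transplantable tumor grown in mice. The endpoint was survival, with treated animals benchmarked against vehicle controls as a simple ratio.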

[1] = dose: 50.0 mg/kg/injection, schedule: Q01DX001 (ip), vehicle: saline
[2] = dose: 100.0 mg/kg/injection, schedule: Q01DX001 (ip), vehicle: saline
[3] = dose: 200.0 mg/kg/injection, schedule: Q01DX001 (ip), vehicle: saline
[4] = dose: 400.0 mg/kg/injection, schedule: Q01DX001 (ip), vehicle: saline
[5] = dose: 100.0 mg/kg/injection, schedule: Q01DX009 (ip), vehicle: Klucel (hydroxypropylcellulose) (HPC)
[6] = dose: 100.0 mg/kg/injection, schedule: Q01DX009 (ip), vehicle: saline
[7] = dose: 200.0 mg/kg/injection, schedule: Q01DX009 (ip), vehicle: saline
[8] = dose: 400.0 mg/kg/injection, schedule: Q01DX009 (ip), vehicle: saline
[9] = dose: 100.0 mg/kg/injection, schedule: Q04DX003 (ip), vehicle: saline with Tween-80
[10] = dose: 200.0 mg/kg/injection, schedule: Q04DX003 (ip), vehicle: saline with Tween-80
[11] = dose: 400.0 mg/kg/injection, schedule: Q04DX003 (ip), vehicle: saline with Tween-80
[12] = dose: 100.0 mg/kg/injection, schedule: Q04DX003 (ip), vehicle: saline
[13] = dose: 100.0 mg/kg/injection, schedule: Q04DX002 (ip), vehicle: Klucel (hydroxypropylcellulose) (HPC)
[14] = dose: 200.0 mg/kg/injection, schedule: Q04DX002 (ip), vehicle: Klucel (hydroxypropylcellulose) (HPC)
[15] = dose: 50.0 mg/kg/injection, schedule: Q04DX002 (ip), vehicle: Klucel (hydroxypropylcellulose) (HPC)

For `COc1nc(=O)n(C2CCCO2)cc1C` (centres undefined), the T/C [1] was 95 % of control, the T/C [2] was 95 % of control and the T/C [3] was 104 % of control. For the same compound, the T/C [4] was 98 % of control.
With `O=C(CCCl)N1CCN(C(=O)CCCl)CC1` the T/C [5] was 106 % of control, the T/C [6] was 103 % of control and the T/C (dose: 100.0 mg/kg/injection, schedule: Q04DX003 (ip), vehicle: Klucel (hydroxypropylcellulose) (HPC)) was 100 % of control. The T/C (dose: 117.32 mg/kg/injection, schedule: Q01DX009 (ip), vehicle: saline) was 119 % of control, the T/C (dose: 148.0 mg/kg/injection, schedule: Q01DX Z (ip), vehicle: methylcellulose (MC)) was 100 % of control and the T/C (dose: 176.0 mg/kg/injection, schedule: Q01DX009 (ip), vehicle: saline) was 100 % of control. The T/C (dose: 200.0 mg/kg/injection, schedule: Q01DX009 (ip), vehicle: Klucel (hydroxypropylcellulose) (HPC)) was 108 % of control, the T/C [7] was 119 % of control and the T/C (dose: 200.0 mg/kg/injection, schedule: Q04DX003 (ip), vehicle: Klucel (hydroxypropylcellulose) (HPC)) was 99 % of control. The T/C (dose: 222.0 mg/kg/injection, schedule: Q01DX Z (ip), vehicle: methylcellulose (MC)) was 104 % of control, the T/C (dose: 264.0 mg/kg/injection, schedule: Q01DX009 (ip), vehicle: saline) was 116 % of control and the T/C (dose: 333.0 mg/kg/injection, schedule: Q01DX Z (ip), vehicle: methylcellulose (MC)) was 119 % of control. For the same compound, the T/C (dose: 400.0 mg/kg/injection, schedule: Q01DX009 (ip), vehicle: Klucel (hydroxypropylcellulose) (HPC)) was 122 % of control, the T/C [8] was 161 % of control and 167 % of control and the T/C (dose: 400.0 mg/kg/injection, schedule: Q04DX003 (ip), vehicle: Klucel (hydroxypropylcellulose) (HPC)) was 121 % of control. For the same compound, the T/C (dose: 500.0 mg/kg/injection, schedule: Q01DX Z (ip), vehicle: methylcellulose (MC)) was 97 % of control and the T/C (dose: 800.0 mg/kg/injection, schedule: Q01DX009 (ip), vehicle: Klucel (hydroxypropylcellulose) (HPC)) was 155 % of control.
In the case of `NCCS(=O)CCN`, the T/C [6] was 100 % of control, the T/C [7] was 107 % of control and the T/C [8] was 94 % of control.
In the case of `O=C/C=C\C=C/Nc1ccc([N+](=O)[O-])cc1[N+](=O)[O-]`, the T/C (dose: 100.0 mg/kg/injection, schedule: Q04DX002 (ip), vehicle: DMSO) was 94 % of control, the T/C (dose: 200.0 mg/kg/injection, schedule: Q04DX002 (ip), vehicle: DMSO) was 98 % of control and the T/C (dose: 400.0 mg/kg/injection, schedule: Q04DX002 (ip), vehicle: DMSO) was 102 % of control.
`Cc1ccc2c(c1)c(N=NC(N)=S)c(O)n2C1OC(CO)C(O)C(O)C1O` (centres undefined) was tested, and the T/C (dose: 50.0 mg/kg/injection, schedule: Q01DX005 (ip), vehicle: saline) was 94 % of control, the T/C (dose: 100.0 mg/kg/injection, schedule: Q01DX005 (ip), vehicle: saline) was 91 % of control and the T/C (dose: 200.0 mg/kg/injection, schedule: Q01DX005 (ip), vehicle: saline) was 94 % of control.
For `O=COCC1CC2C=CC1C2` (centres undefined), the T/C (dose: 222.0 mg/kg/injection, schedule: Q01DX Z (ip), vehicle: saline) was 98 % of control, the T/C (dose: 333.0 mg/kg/injection, schedule: Q01DX Z (ip), vehicle: saline) was 102 % of control and the T/C (dose: 500.0 mg/kg/injection, schedule: Q01DX Z (ip), vehicle: saline) was 97 % of control.
With `OC(CN1CCCCC1)c1cccs1` (centres undefined) the T/C (dose: 6.25 mg/kg/injection, schedule: Q04DX003 (ip), vehicle: saline with Tween-80) was 94 % of control, the T/C (dose: 12.5 mg/kg/injection, schedule: Q04DX003 (ip), vehicle: saline with Tween-80) was 97 % of control and the T/C (dose: 25.0 mg/kg/injection, schedule: Q04DX003 (ip), vehicle: saline with Tween-80) was 94 % of control.
For `CC(=O)c1cccc(NC(=O)Oc2cc(=O)oc3ccccc23)c1`, the T/C (dose: 25.0 mg/kg/injection, schedule: Q01DX009 (ip), vehicle: Klucel (hydroxypropylcellulose) (HPC)) was 92 % of control, the T/C (dose: 50.0 mg/kg/injection, schedule: Q01DX009 (ip), vehicle: Klucel (hydroxypropylcellulose) (HPC)) was 101 % of control and the T/C [5] was 101 % of control.
For `ClC(Cl)c1ccccc1`, the T/C [9] was 98 % of control, the T/C [10] was 95 % of control and the T/C [11] was 87 % of control.
`Nc1nc(CBr)c(CCCCc2ccccc2)c(=O)[nH]1` was tested, and the T/C (dose: 37.5 mg/kg/injection, schedule: Q01DX001 (ip), vehicle: saline with Tween-80) was 100 % of control and the T/C (dose: 75.0 mg/kg/injection, schedule: Q01DX001 (ip), vehicle: saline with Tween-80) was 101 % of control.
`N=C(N)c1ccc(-c2cc3cc(C(=N)N)ccc3s2)cc1` was tested, and the T/C [12] was 105 % of control.
For `OC(CN1CCN(c2ccccc2)CC1)c1cc2ccccc2o1` (centres undefined), the T/C [9] was 104 % of control, the T/C [10] was 94 % of control and the T/C [11] was 94 % of control.
In the case of `CC(=O)OCCn1c([N+](=O)[O-])cnc1/C=[N+](\[O-])C1CCCCC1`, the T/C [13] was 107 % of control, the T/C [14] was 100 % of control and the T/C (dose: 400.0 mg/kg/injection, schedule: Q04DX002 (ip), vehicle: Klucel (hydroxypropylcellulose) (HPC)) was 103 % of control.
In the case of `C1=CC2(CC=C1C1=CCC3(C=C1)SCCS3)SCCS2`, the T/C [15] was 108 % of control, the T/C [13] was 101 % of control and the T/C [14] was 104 % of control.
For `Cc1ccc(/C=C/c2ccccn2)cc1`, the T/C (dose: 50.0 mg/kg/injection, schedule: Q01DX001 (ip), vehicle: carboxymethylcellulose (CMC)) was 100 % of control, the T/C (dose: 50.0 mg/kg/injection, schedule: Q04DX003 (ip), vehicle: carboxymethylcellulose (CMC)) was 105 % of control and the T/C (dose: 100.0 mg/kg/injection, schedule: Q01DX001 (ip), vehicle: carboxymethylcellulose (CMC)) was 100 % of control. For the same compound, the T/C (dose: 100.0 mg/kg/injection, schedule: Q01DX009 (ip), vehicle: carboxymethylcellulose (CMC)) was 100 % of control and 90 % of control, the T/C (dose: 100.0 mg/kg/injection, schedule: Q04DX002 (ip), vehicle: carboxymethylcellulose (CMC)) was 98 % of control and 107 % of control and the T/C (dose: 100.0 mg/kg/injection, schedule: Q04DX003 (ip), vehicle: carboxymethylcellulose (CMC)) was 110 % of control. For the same compound, the T/C (dose: 200.0 mg/kg/injection, schedule: Q01DX001 (ip), vehicle: carboxymethylcellulose (CMC)) was 100 % of control, the T/C (dose: 200.0 mg/kg/injection, schedule: Q01DX009 (ip), vehicle: carboxymethylcellulose (CMC)) was 93 % of control and 108 % of control and the T/C (dose: 200.0 mg/kg/injection, schedule: Q04DX002 (ip), vehicle: carboxymethylcellulose (CMC)) was 97 % of control and 113 % of control. The T/C (dose: 200.0 mg/kg/injection, schedule: Q04DX003 (ip), vehicle: carboxymethylcellulose (CMC)) was 96 % of control and the T/C (dose: 400.0 mg/kg/injection, schedule: Q04DX002 (ip), vehicle: carboxymethylcellulose (CMC)) was 98 % of control and 90 % of control.
With `CN(C)N=Nc1ccc(C(=O)O)cc1` the T/C (dose: 25.0 mg/kg/injection, schedule: Q01DX009 (ip), vehicle: saline with Tween-80) was 108 % of control, the T/C (dose: 50.0 mg/kg/injection, schedule: Q01DX009 (ip), vehicle: saline with Tween-80) was 113 % of control and 120 % of control and the T/C (dose: 59.0 mg/kg/injection, schedule: Q04DX003 (ip), vehicle: saline) was 108 % of control. The T/C (dose: 88.0 mg/kg/injection, schedule: Q04DX003 (ip), vehicle: saline) was 113 % of control, the T/C [12] was 109 % of control and the T/C (dose: 133.0 mg/kg/injection, schedule: Q04DX003 (ip), vehicle: saline) was 119 % of control. The T/C (dose: 200.0 mg/kg/injection, schedule: Q01DX009 (ip), vehicle: saline with Tween-80) was 117 % of control and the T/C (dose: 400.0 mg/kg/injection, schedule: Q04DX003 (ip), vehicle: saline) was 105 % of control.
In the case of `O=C1CN(/N=C/c2ccc(-c3ccc(Cl)c(Cl)c3)o2)C(=O)N1`, the T/C [15] was 100 % of control, the T/C [13] was 110 % of control and the T/C [14] was 95 % of control.
In the case of `Nc1ccc(/C=C/c2ccnc3ccccc23)cc1`, the T/C (dose: 0.5 mg/kg/injection, schedule: Q01DX015 (ip), vehicle: saline) was 101 % of control, the T/C (dose: 1.0 mg/kg/injection, schedule: Q01DX015 (ip), vehicle: saline) was 101 % of control and the T/C (dose: 2.0 mg/kg/injection, schedule: Q01DX015 (ip), vehicle: saline) was 101 % of control. The T/C (dose: 4.0 mg/kg/injection, schedule: Q01DX015 (ip), vehicle: saline) was 101 % of control, the T/C [1] was 95 % of control and the T/C [2] was 97 % of control. The T/C [3] was 95 % of control and the T/C [4] was 105 % of control.
